Reference: US12410162B2, “Pyrazole acylhydrazone containing trifluoromethylthiadiazole units, preparation method and use thereof” (NANTONG UNIVERSITY, priority 2020, dated 2025)

Tested on: Mycosphaerella melonis
Assay: Screening of bactericidal activity against Mycosphaerella melonis (toxic medium method)
Assay type: cell-based
Details: test concentration 200 μg/mL, 24-26° C. in the dark
Experimental: Screening of the Bactericidal Activity of the Samples Against Mycosphaerella melonis The toxic medium method was used to determine the antibacterial activity of the target against Mycosphaerella melonis. First the drug solution was added to the culture medium, then the bacterial cake was placed on the culture medium, the petri dish was placed in a 24-26° C. incubator in the dark, and then cultured at a constant temperature. Then according to the growth rate of pathogenic bacteria, when the diameter of the control was to about 8 cm, the antibacterial rate % was calculated. The test concentration was 200 μg/mL (the drug solution with other concentrations was obtained by diluting the drug solution with the concentration of 200 μg/mL).

SMILES | Mycosphaerella melonis (inhibition ratio, %)
Cc1nn(C)c(Oc2cccc(Cl)c2)c1C=NNC(=O)c1snnc1C(F)(F)F [Ia] | 100%
Cc1nn(C)c(Oc2cccc(Br)c2)c1C=NNC(=O)c1snnc1C(F)(F)F [Ib] | 100%
Cc1nn(C)c(Oc2ccc(F)cc2F)c1C=NNC(=O)c1snnc1C(F)(F)F [Ic] | 90%
Cc1nn(C)c(Oc2ccc(Cl)cc2Cl)c1C=NNC(=O)c1snnc1C(F)(F)F [Id] | 100%
